Where a name gives a salt, the structure may show the parent alone.
Experiments:
[1] = test system: Bleomycin-Induced Dermal Fibrosis; assay: Bleomycin-induced dermal fibrosis animal model; format: in vivo, C57Bl/6 Mice; details: 15 mg/kg intraperitoneal once daily days 0-27; bleomycin 20 μg s.c. daily; stated in words only, figure values not given
Excerpt: Animal Model Designed to Determine Efficacy of Memantine for the Treatment of Bleomycin-Induced Dermal Fibrosis
Forty-two normal male C57Bl/6 Mice were obtained from Charles River Laboratories. Mice age at the start of the study were from 6-8 weeks old. Study subjects were allocated as follows: 1 group of 6 mice and 3 groups of 12 mice each. Animals were not replaced during the study.
(§1) Bleomycin from Henry Schein (Cat #: 8700001) was obtained as a lyophilized powder. Unformulated Bleomycin was stored at 4° C. Formulated Bleomycin was prepared by mixing the lyophilized Bleomycin powder with saline to obtain a 0.4 mg/ml solution. Unused unformulated Bleomycin was retained. The prepared Bleomycin solution was aliquoted into 50 μL, 0.4 mg/ml Bleomycin parts and stored at −80° C. Bleomycin was prepared once and daily aliquots were frozen. Frozen aliquots were thawed daily for administration. […] Bleomycin was administered once daily on days 0-27 at 20 μg per subcutaneous injection. Unused formulated Bleomycin was disposed.
Memantine HCl from Selleckchem (Cat #: S2043) was obtained. Unformulated Memantine HCl was stored at −20° C. […]
Animals were dosed with test articles, administered at least 60 minutes prior to Bleomycin or saline injections. All animals were weighed and evaluated daily. […]

Alzheimer's disease = details: cited from earlier work
long term potentiation = details: animal models; cited from earlier work
[2] = Stability of the formulated dosing solutions; format: physicochemical; details: 0.4 mg/ml in saline; room temperature
Method: as §1
Memantine HCl from Selleckchem (Cat #: S2043) was obtained. Unformulated Memantine HCl was stored at −20° C. Memantine was formulated daily by the following procedure: dissolve memantine in a 50/50 mixture of Kolliphor® EL (Sigma, Cat #: C5135)/ethanol for a 4× concentration of 12 mg/ml. Once dissolved, 3 parts MilliQ water is added for a final concentration of 3 mg/ml for dosing (12.5% Kolliphor® EL, 12.5% ethanol, 75% water). Unused unformulated Memantine was disposed. Memantine was formulated daily and administered by intraperitoneal injection once daily on days 0-27 at 15 mg/kg; 0.1 mL/20 g (5 mL/kg). […] Unused formulated Memantine was disposed.

Row | Compound | efficacy at treating fibromatosis conditions [1] | cognitive, functional and global endpoints (Alzheimer's disease; three randomized placebo-controlled trials, Alzheimer's disease) | tolerability (Alzheimer's disease; used in Germany for neurological syndromes and cognitive deficits since 1982) | duration of long term potentiation in vivo (long term potentiation) | learning and memory (long term potentiation) | stability of formulated Bleomycin [2]
1 | CC12CC3CC(C)(C1)CC(N)(C3)C2 [Memantine, Memantine HCl] | Effective at Treating Fibromatosis Conditions | significant improvements | good tolerability | prolong the duration of long term potentiation in vivo | improve learning and memory | –
2 | Bleomycin | – | – | – | – | – | stable for a few hours at room temperature

From patent US12390426B1, “Use of adamantane compositions and methods of reducing fibrotic tissue” (Ventoux Biosciences, Inc., priority 2024, dated 2025)
